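Five compound concentrations were applied to cells in 96-well plates for 48 hours; endpoints were derived by simple linear interpolation of the resulting dose-response curve. GI50 = concentration required for 50% inhibition of growth.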 Activity calls are given as the source filed them. No stated cut-off is given here; in the data, active = GI50 up to about 1.1 µM and inactive = higher.
Experiments:
Assay in all cases: NCI tumour cell line growth inhibition, 48 h
SW-620 = system: SW-620
OVCAR-3 = system: OVCAR-3
SNB-19 = system: SNB-19
RXF 393 = system: RXF 393
UO-31 = system: UO-31
SF-295 = system: SF-295
SK-MEL-28 = system: SK-MEL-28
HT-29 = system: HT-29
HCT-15 = system: HCT-15
K562 = system: K562
HCC 2998 = system: HCC 2998
U-251 = system: U-251
MDA-N = system: MDA-N
PC-3 = system: PC-3
DU-145 = system: DU-145
UACC-62 = system: UACC-62
LOX IMVI = system: LOX IMVI
SK-MEL-2 = system: SK-MEL-2
UACC-257 = system: UACC-257
SN12C = system: SN12C
HL-60 = system: HL-60
EKVX = system: EKVX
HOP-62 = system: HOP-62
OVCAR-8 = system: OVCAR-8
A498 = system: A498
HCT-116 = system: HCT-116
TK-10 = system: TK-10
NCI-H226 = system: NCI-H226
SF-539 = system: SF-539
COLO 205 = system: COLO 205
NCI-H460 = system: NCI-H460
CCRF-CEM = system: CCRF-CEM
BT-549 = system: BT-549
OVCAR-4 = system: OVCAR-4
T47D = system: T47D
NCI-H23 = system: NCI-H23
SNB-75 = system: SNB-75
CAKI-1 = system: CAKI-1
HOP-92 = system: HOP-92
786-0 = system: 786-0
NCI/ADR-RES = system: NCI/ADR-RES
NCI-H522 = system: NCI-H522
SR = system: SR
RPMI-8226 = system: RPMI-8226
KM12 = system: KM12
IGROV-1 = system: IGROV-1
SK-MEL-5 = system: SK-MEL-5
ACHN = system: ACHN
M14 = system: M14
SF-268 = system: SF-268
MOLT-4 = system: MOLT-4
Hs-578T = system: Hs-578T
MDA-MB-435 = system: MDA-MB-435
MCF7 = system: MCF7
Malme-3M = system: Malme-3M
A549 = system: A549
OVCAR-5 = system: OVCAR-5
SK-OV-3 = system: SK-OV-3

SMILES: O=c1[nH]nc(Cc2ccccc2)[nH]1
- GI50 (SW-620): > 100 µM (inactive)
- GI50 (OVCAR-3): > 100 µM (inactive)
- GI50 (SNB-19): > 100 µM (inactive)
- GI50 (RXF 393): > 100 µM (inactive)
- GI50 (UO-31): > 100 µM (inactive)
- GI50 (SF-295): > 100 µM (inactive)
- GI50 (SK-MEL-28): > 100 µM (inactive)
- GI50 (HT-29): > 100 µM (inactive)
- GI50 (HCT-15): > 100 µM
- GI50 (K562): > 100 µM (inactive)
- GI50 (HCC 2998): > 100 µM (inactive)
- GI50 (U-251): > 100 µM (inactive)
- GI50 (MDA-N): > 100 µM (inactive)
- GI50 (PC-3): > 100 µM (inactive)
- GI50 (DU-145): > 100 µM (inactive)
- GI50 (UACC-62): > 100 µM (inactive)
- GI50 (LOX IMVI): > 100 µM (inactive)
- GI50 (SK-MEL-2): > 100 µM (inactive)
- GI50 (UACC-257): > 100 µM (inactive)
- GI50 (SN12C): > 100 µM (inactive)
- GI50 (HL-60): > 100 µM (inactive)
- GI50 (EKVX): > 100 µM (inactive)
- GI50 (HOP-62): > 100 µM (inactive)
- GI50 (OVCAR-8): > 100 µM (inactive)
- GI50 (A498): > 100 µM (inactive)
- GI50 (HCT-116): > 100 µM (inactive)
- GI50 (TK-10): > 100 µM (inactive)
- GI50 (NCI-H226): > 100 µM (inactive)
- GI50 (SF-539): > 100 µM (inactive)
- GI50 (COLO 205): > 100 µM (inactive)
- GI50 (NCI-H460): > 100 µM (inactive)
- GI50 (CCRF-CEM): > 100 µM (inactive)
- GI50 (BT-549): > 100 µM (inactive)
- GI50 (OVCAR-4): > 100 µM (inactive)
- GI50 (T47D): > 100 µM (inactive)
- GI50 (NCI-H23): > 100 µM (inactive)
- GI50 (SNB-75): > 100 µM (inactive)
- GI50 (CAKI-1): > 100 µM (inactive)
- GI50 (HOP-92): > 100 µM (inactive)
- GI50 (786-0): > 100 µM (inactive)
- GI50 (NCI/ADR-RES): > 100 µM (inactive)
- GI50 (NCI-H522): > 100 µM (inactive)
- GI50 (SR): 44.6 µM (inactive)
- GI50 (RPMI-8226): > 100 µM (inactive)
- GI50 (KM12): > 100 µM (inactive)
- GI50 (IGROV-1): > 100 µM (inactive)
- GI50 (SK-MEL-5): > 100 µM (inactive)
- GI50 (ACHN): > 100 µM (inactive)
- GI50 (M14): > 100 µM (inactive)
- GI50 (SF-268): > 100 µM (inactive)
- GI50 (MOLT-4): > 100 µM (inactive)
- GI50 (Hs-578T): > 100 µM (inactive)
- GI50 (MDA-MB-435): > 100 µM (inactive)
- GI50 (MCF7): > 100 µM (inactive)
- GI50 (Malme-3M): > 100 µM (inactive)
- GI50 (A549): > 100 µM (inactive)
- GI50 (OVCAR-5): > 100 µM (inactive)

SMILES: CCOC(=O)CCC(C(=O)OCC)n1nnc2ccc(Nc3c(C)[n+]([O-])c4ccc(Cl)cc4[n+]3[O-])cc21 (stereo not drawn)
- GI50 (SW-620): 54 µM (inactive)
- GI50 (OVCAR-3): 32.1 µM (inactive)
- GI50 (SNB-19): > 100 µM (inactive)
- GI50 (RXF 393): 26.9 µM (inactive)
- GI50 (UO-31): 42.2 µM (inactive)
- GI50 (SF-295): 27.8 µM (inactive)
- GI50 (HT-29): 52.7 µM (inactive)
- GI50 (HCT-15): 27.9 µM
- GI50 (K562): 45.8 µM (inactive)
- GI50 (U-251): 46.3 µM (inactive)
- GI50 (MDA-N): 54.7 µM (inactive)
- GI50 (PC-3): > 100 µM (inactive)
- GI50 (DU-145): 50.6 µM (inactive)
- GI50 (SK-OV-3): 60.1 µM (inactive)
- GI50 (UACC-62): 30.4 µM (inactive)
- GI50 (LOX IMVI): 28.8 µM (inactive)
- GI50 (SK-MEL-2): 30.9 µM (inactive)
- GI50 (UACC-257): 19.2 µM (inactive)
- GI50 (SN12C): 46.2 µM (inactive)
- GI50 (HL-60): 39.2 µM (inactive)
- GI50 (EKVX): 17.1 µM (inactive)
- GI50 (HOP-62): 36.1 µM (inactive)
- GI50 (OVCAR-8): 39.2 µM (inactive)
- GI50 (A498): > 100 µM (inactive)
- GI50 (HCT-116): 40.2 µM (inactive)
- GI50 (TK-10): 66.2 µM (inactive)
- GI50 (NCI-H226): 22.4 µM (inactive)
- GI50 (SF-539): 38.5 µM (inactive)
- GI50 (COLO 205): 37.4 µM (inactive)
- GI50 (NCI-H460): 49.7 µM (inactive)
- GI50 (CCRF-CEM): 35 µM (inactive)
- GI50 (BT-549): 54.3 µM (inactive)
- GI50 (OVCAR-4): 33.8 µM (inactive)
- GI50 (T47D): 34 µM (inactive)
- GI50 (NCI-H23): 33.5 µM (inactive)
- GI50 (SNB-75): 31.4 µM (inactive)
- GI50 (CAKI-1): 49.2 µM (inactive)
- GI50 (HOP-92): 23.8 µM (inactive)
- GI50 (786-0): 44 µM (inactive)
- GI50 (NCI/ADR-RES): 28.3 µM (inactive)
- GI50 (NCI-H522): 43.4 µM (inactive)
- GI50 (SR): 33 µM (inactive)
- GI50 (RPMI-8226): 28.6 µM (inactive)
- GI50 (KM12): 91.2 µM (inactive)
- GI50 (IGROV-1): 40.5 µM (inactive)
- GI50 (SK-MEL-5): 39.4 µM (inactive)
- GI50 (ACHN): 28.6 µM (inactive)
- GI50 (M14): 37.5 µM (inactive)
- GI50 (SF-268): 23.5 µM (inactive)
- GI50 (MOLT-4): 34.5 µM (inactive)
- GI50 (Hs-578T): > 100 µM (inactive)
- GI50 (MDA-MB-435): 51.9 µM (inactive)
- GI50 (MCF7): 19.9 µM (inactive)
- GI50 (Malme-3M): > 100 µM (inactive)
- GI50 (A549): 57.3 µM (inactive)
- GI50 (OVCAR-5): 54.1 µM (inactive)

— ChEMBL document CHEMBL1201862, “PubChem BioAssay data set” (2004)
